From US8404713B2, “Quinolinone derivatives as PARP inhibitors” (Janssen Pharmaceutica NV, priority 2007, dated 2013)

Assays:
Human PARP-1 enzyme = molecular target: T1, Human PARP-1 enzyme (Homo sapiens, UniProt P09874); assay: In vitro scintillation proximity assay (SPA) for PARP-1 inhibitory activity; type: biochemical; conditions: nicked DNA activated PARP-1, [3H]-NAD+, biotinylated histones; tested between 10^-5 M and 3x10^-9 M; read-out: in vitro SPA assay PARP-1 pIC50 (converted)
T1 construct: purchased Trevigen
Protocol: C.1. In Vitro Scintillation Proximity Assay (SPA) for PARP-1 Inhibitory Activity
Compounds of the present invention were tested in an in vitro assay based on SPA technology (proprietary to GE healthcare).
In principle, the assay relies upon the well established SPA technology for the detection of poly(ADP-ribosyl)ation of biotinylated target proteins, i.e histones. This ribosylation is induced using nicked DNA activated PARP-1 enzyme and [^3H]-nicotinamide adenine dinucleotide ([^3H]-NAD^+) as ADP-ribosyl donor.
Histones (type II-A, supplier: Sigma) were biotinylated using the biotinylation kit of Amersham and stored aliquoted at −20° C. A stock solution of 100 mg/ml SPA poly(vinyl toluene) (PVT) beads (supplier: Amersham) was made in PBS. A stock solution of 61.6 nM [^3H]-NAD^+ was made by adding [^3H]-NAD^+ (0.1 mCi/ml, supplier: Perkin Elmer) to incubation buffer (50 mM Tris/HCl, pH 8; 0.2 mM DTT; 4 mM MgCl2). A solution of 4 mM NAD^+ (supplier: Sigma) was made. Human PARP-1 enzyme was obtained from Trevigen. Biotinylated histones and PVT-SPA beads were mixed and pre-incubated for 30 min. at room temperature. PARP-1 enzyme (concentration was lot dependent) was mixed with the nicked DNA and the mixture was pre-incubated for 30 min. at 4° C. Equal parts of this histones/PVT-SPA beads solution and PARP-1 enzyme/DNA solution were mixed and 75 μl of this mixture together with 1 μl of compound in DMSO and 25 μl of [^3H]-NAD^+ was added per well into a 96-well microtiterplate. The final concentrations in the incubation mixture were 2 μg/ml for the biotinylated histones, 2 mg/ml for the PVT-SPA beads, 0.25 μg/ml for the nicked DNA and between 0.1-0.2 μg/ml for the PARP-1 enzyme. After incubation of the mixture for 20 min. at room temperature, the reaction was terminated by adding 100 μl of 4 mM NAD^+ in water (final concentration 2 mM) and plates were mixed. The beads were sedimented by centrifugation (10 min, 800 rpm). and plates transferred to a TopCountNXT™ (Packard) for scintillation counting, values were expressed as counts per minute (cpm). For each experiment, controls (containing PARP-1 enzyme and DMSO without compound), a blank incubation (containing DMSO but no PARP-1 enzyme, no DNA or compound) and samples (containing PARP-1 enzyme, DNA and compound dissolved in DMSO) were run in parallel. All compounds tested were dissolved and eventually further diluted in DMSO. A dose-response curve was made wherein the compounds were tested at concentrations between 10^−5M and 3×10^−9M. In each test, the blank value was subtracted from both the control and the sample values. The control sample represented maximal PARP-1 enzyme activity. For each sample, the amount of cpm was expressed as a percentage of the mean cpm value of the controls. When appropriate, IC50-values (concentration of the drug, needed to reduce the PARP-1 enzyme activity to 50% of the control) were computed using linear interpolation between the experimental points just above and below the 50% level. Herein the effects of test compounds are expressed as pIC50 (the negative log value of the IC50-value). As a reference compound, 4-amino-1,8-naphthalimide was included to validate the SPA assay.

TANK-2 enzyme = molecular target: T2, TANK-2 enzyme (Homo sapiens, UniProt Q9H2K2); assay: In vitro scintillation proximity assay (SPA) for TANK-2 inhibitory activity; type: biochemical; conditions: auto-poly(ADP-ribosyl)ation, Ni flash plates; 96-well results if available, otherwise 384-well; tested between 10^-5 M and 3x10^-8 M; read-out: in vitro SPA assay TANK-2 pIC50 (converted)
T2 construct: made in house
T2 sequence (Q9H2K2 1-1166): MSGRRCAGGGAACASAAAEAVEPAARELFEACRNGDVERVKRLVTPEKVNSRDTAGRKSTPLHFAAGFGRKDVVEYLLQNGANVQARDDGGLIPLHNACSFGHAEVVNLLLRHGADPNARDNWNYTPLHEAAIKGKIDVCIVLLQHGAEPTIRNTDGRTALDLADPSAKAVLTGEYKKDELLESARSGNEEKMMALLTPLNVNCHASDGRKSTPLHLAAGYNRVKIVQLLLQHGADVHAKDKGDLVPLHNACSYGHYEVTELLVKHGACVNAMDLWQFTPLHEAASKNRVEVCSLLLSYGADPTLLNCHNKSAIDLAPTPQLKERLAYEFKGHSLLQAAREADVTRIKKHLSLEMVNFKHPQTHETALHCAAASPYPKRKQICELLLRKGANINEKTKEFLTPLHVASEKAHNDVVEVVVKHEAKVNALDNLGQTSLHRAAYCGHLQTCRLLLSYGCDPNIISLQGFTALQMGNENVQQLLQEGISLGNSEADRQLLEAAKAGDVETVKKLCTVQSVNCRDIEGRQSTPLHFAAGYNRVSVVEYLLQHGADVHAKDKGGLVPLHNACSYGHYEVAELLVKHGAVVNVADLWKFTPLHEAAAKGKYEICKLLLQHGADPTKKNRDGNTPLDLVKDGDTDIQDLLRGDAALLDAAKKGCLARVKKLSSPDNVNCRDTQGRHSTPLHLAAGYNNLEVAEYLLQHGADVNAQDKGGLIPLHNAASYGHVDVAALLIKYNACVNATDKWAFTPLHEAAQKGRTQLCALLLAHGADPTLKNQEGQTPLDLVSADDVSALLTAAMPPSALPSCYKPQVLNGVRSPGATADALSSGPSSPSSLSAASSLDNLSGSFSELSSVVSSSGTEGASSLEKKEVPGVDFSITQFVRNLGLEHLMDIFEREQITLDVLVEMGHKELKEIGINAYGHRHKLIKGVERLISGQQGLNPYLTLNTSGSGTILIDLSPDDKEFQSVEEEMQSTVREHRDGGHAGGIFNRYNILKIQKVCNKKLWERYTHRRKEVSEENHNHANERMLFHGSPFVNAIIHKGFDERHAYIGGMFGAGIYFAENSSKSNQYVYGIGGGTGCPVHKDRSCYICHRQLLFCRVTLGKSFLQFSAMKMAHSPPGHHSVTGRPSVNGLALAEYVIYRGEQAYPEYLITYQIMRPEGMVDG
Protocol: C.2. In Vitro Scintillation Proximity Assay (SPA) for TANK-2 Inhibitory Activity
Compounds of the present invention were tested in an in vitro assay based on SPA technology with Ni Flash plates (96 or 384 well).
In principle, the assay relies upon SPA technology for the detection of auto-poly(ADP-ribosyl)ation of TANK-2 protein using [^3H]-nicotinamide adenine dinucleotide ([^3H]-NAD^+) as ADP-ribosyl donor.
A stock solution of 100 nM [^3H]-NAD^+/NAD (0.1 mCi/ml, supplier: Perkin Elmer) and 0.25 mM NAD (Sigma) was made in assay buffer (60 mM Tris/HCl, pH 7.4; 0.9 mM DTT; 6 mM MgCl2). The TANK-2 enzyme was produced as described in EP1238063. 60 μl of assay buffer, together with 1 μl of compound in DMSO, 20 μl of [^3H]-NAD^+/NAD and 20 μl of TANK-2 enzyme (final concentration 8 μg/ml) was added per well into a 96-well Ni-coated flash plate (Perkin Elmer). After incubation of the mixture for 120 min. at room temperature, the reaction was terminated by adding 60 μl of stopsolution (42.6 mg NAD in 6 ml H2O). The plates were covered with a plate sealer and placed in a TopCountNX™ (Packard) for scintillation counting. Values were expressed as counts per minute (cpm). For each experiment, controls (containing TANK-2 enzyme and DMSO without compound), a blank incubation (containing DMSO but no TANK-2 enzyme or compound) and samples (containing TANK-2 enzyme and compound dissolved in DMSO) were run in parallel. All compounds tested were dissolved and eventually further diluted in DMSO. […] In each test, the blank value was subtracted from both the control and the sample values. The control sample represented maximal TANK-2 enzyme activity. For each sample, the amount of cpm was expressed as a percentage of the mean cpm value of the controls. When appropriate, IC50-values (concentration of the drug, needed to reduce the TANK-2 enzyme activity to 50% of the control) were computed using linear interpolation between the experimental points just above and below the 50% level. Herein the effects of test compounds are expressed as pIC50 (the negative log value of the IC50-value). As reference compounds, 3-aminobenzamide and 4-amino-1,8-naphtalimide were included to validate the SPA assay. Herein the assay was described using 96-well plates. In the assay using 384-well plates the same final concentrations were used and volumes were adapted.

[1] = test system: ischemia and reperfusion of the heart or skeletal muscle; conditions: rabbits, cited from earlier work
[2] = test system: colitis induced by intraluminal trinitrobenzene sulfonic acid; conditions: rats, colitis by trinitrobenzene sulfonic acid in 50% ethanol; cited from earlier work

T1 sequence (P09874 whole entry): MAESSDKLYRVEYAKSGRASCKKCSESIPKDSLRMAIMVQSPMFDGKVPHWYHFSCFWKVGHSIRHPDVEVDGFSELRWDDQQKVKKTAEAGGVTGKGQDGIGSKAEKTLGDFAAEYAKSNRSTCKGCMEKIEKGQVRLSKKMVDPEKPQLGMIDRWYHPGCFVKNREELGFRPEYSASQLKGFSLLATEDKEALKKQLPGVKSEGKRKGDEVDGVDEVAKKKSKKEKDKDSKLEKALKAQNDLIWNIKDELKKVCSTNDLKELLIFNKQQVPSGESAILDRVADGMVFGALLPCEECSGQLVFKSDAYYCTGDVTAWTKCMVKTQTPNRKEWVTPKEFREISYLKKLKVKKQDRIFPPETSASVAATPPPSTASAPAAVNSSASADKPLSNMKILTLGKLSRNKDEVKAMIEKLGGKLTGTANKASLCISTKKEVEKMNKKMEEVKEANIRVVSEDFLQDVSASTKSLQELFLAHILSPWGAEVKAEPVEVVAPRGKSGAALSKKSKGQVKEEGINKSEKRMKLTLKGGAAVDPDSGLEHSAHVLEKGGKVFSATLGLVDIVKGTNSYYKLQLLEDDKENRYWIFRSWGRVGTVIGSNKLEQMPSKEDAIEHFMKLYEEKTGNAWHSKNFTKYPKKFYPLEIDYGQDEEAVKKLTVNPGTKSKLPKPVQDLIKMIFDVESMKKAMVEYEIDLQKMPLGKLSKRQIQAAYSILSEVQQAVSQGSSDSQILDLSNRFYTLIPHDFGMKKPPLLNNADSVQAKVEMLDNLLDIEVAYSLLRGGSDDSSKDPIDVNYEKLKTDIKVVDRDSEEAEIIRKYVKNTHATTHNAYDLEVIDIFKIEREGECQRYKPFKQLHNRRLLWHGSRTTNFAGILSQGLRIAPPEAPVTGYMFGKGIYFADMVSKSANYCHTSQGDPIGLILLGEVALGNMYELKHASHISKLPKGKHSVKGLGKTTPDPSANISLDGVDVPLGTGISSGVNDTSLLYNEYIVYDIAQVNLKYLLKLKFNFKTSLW

| SMILES | melting point [°C] | IC50 (Human PARP-1 enzyme) [nM] | IC50 (TANK-2 enzyme) [nM] | reduction in infarct size ([1]; single injection 1 mg/kg) | reduction in infarct size in the heart ([1]; single injection 10 mg/kg, one minute before occlusion or one minute before reperfusion) | effect on inflammatory response, morphology and energetic status of the distal colon [2] |
| --- | --- | --- | --- | --- | --- | --- |
| CCc1cc2ccc(CNCCc3c[nH]c4ccccc34)cc2[nH]c1=O [Compound 1] | 155 | 13.4 | 1440 | – | – | – |
| CCc1cc2ccc(C(CO)N3CCC(Cc4ccccc4)CC3)cc2[nH]c1=O (stereo not drawn) [Compound 9] | 172 | 109 | 3100 | – | – | – |
| Oc1cccc2c(O)nccc12 [1,5-dihydroxyisoquinoline] | – | – | – | 38-48% | – | – |
| Cc1cc2ccc(C(C)N3CCCC3)cc2[nH]c1=O (stereo not drawn) [Compound 68] | 133 | 0.759 | 2140 | – | – | – |
| CCc1cc2ccc(C(=O)N3CCc4ccccc4C3)cc2[nH]c1=O [Compound 10] | 255 | 108 | 454 | – | – | – |
| CCc1cc2ccc(C(C)NCCc3c[nH]c4ccccc34)cc2[nH]c1=O (stereo not drawn) [Compound 14] | 170 | 70.1 | 428 | – | – | – |
| COc1ccccc1N1CCN(Cc2ccc3cc(C)c(=O)[nH]c3c2)CC1 [Compound 23] | 198 | 0.251 | > 10000 | – | – | – |
| NC(=O)c1cccc(N)c1 [3-amino-benzamide] | – | – | – | – | 32-42% | reduced the inflammatory response and restored the morphology and the energetic status of the distal colon |

Further lines, with some results ahead:

| melting point [°C] | IC50 (Human PARP-1 enzyme) [nM] | IC50 (TANK-2 enzyme) [nM] | SMILES | reduction in infarct size ([1]; single injection 1 mg/kg) | reduction in infarct size in the heart ([1]; single injection 10 mg/kg, one minute before occlusion or one minute before reperfusion) | effect on inflammatory response, morphology and energetic status of the distal colon [2] |
| --- | --- | --- | --- | --- | --- | --- |
| 163 | 201 | 225 | CCc1cc2ccc(C(O)CN3CCOCC3)cc2[nH]c1=O (stereo not drawn) [Compound 4] | – | – | – |
| 168 | 77.4 | 2150 | CCc1cc2ccc(CNC3CCN(c4ncccn4)CC3)cc2[nH]c1=O [Compound 15] | – | – | – |
| 190 | 1.08 | 940 | Cc1cc2ccc(C(C)N3CCN(c4ccccc4C#N)CC3)cc2[nH]c1=O (stereo not drawn) [Compound 20] | – | – | – |
| 235 | 51.3 | 36.1 | CCOC(=O)c1cnc(N2CCN(Cc3ccc4cc(CC)c(=O)[nH]c4c3)CC2)nc1 [Compound 11] | – | – | – |
| > 250 | 7.4 | 36.2 | CCc1cc2ccc(CN3CCN(c4ncc(C(N)=O)cn4)CC3)cc2[nH]c1=O [Compound 16] | – | – | – |
| 135 | 3.94 | 269 | CCc1cc2ccc(C(C(C)C)N3CCN(c4ccc(C#N)cn4)CC3)cc2[nH]c1=O (stereo not drawn) [Compound 13] | – | – | – |
| 225 | 1.52 | > 10000 | Cc1cc2ccc(CN3CCC(c4ccccc4)CC3)cc2[nH]c1=O [Compound 7] | – | – | – |
| 242 | 0.938 | 1900 | CCc1cc2ccc(CN3CCN(c4ccccc4)CC3)cc2[nH]c1=O [Compound 6] | – | – | – |
| 184 | 1.24 | 5450 | CCc1cc2ccc(CN3CCC(c4ccccc4)CC3)cc2[nH]c1=O [Compound 3] | – | – | – |
